Test results taken from patent publication US6821970B2, “Oxazinocarbazoles for the treatment of CNS diseases” (Pharmacia & Upjohn Company, priority 1999, dated 2004).
Where a name gives a salt, the structure may show the parent alone.

Experiments:
[1] = biological target: T1, cloned human 5-HT6 receptor (Homo sapiens, UniProt P50406); assay: 5-HT6 receptor binding assay ([3H]-LSD radioligand, SPA beads); details: membranes of Hela cells containing cloned human 5-HT6 receptor, IC50 converted by Cheng-Prusoff
T1 construct: host or cells: HeLa cells (G-418 selected); membrane preparation
T1 sequence (P50406 whole entry): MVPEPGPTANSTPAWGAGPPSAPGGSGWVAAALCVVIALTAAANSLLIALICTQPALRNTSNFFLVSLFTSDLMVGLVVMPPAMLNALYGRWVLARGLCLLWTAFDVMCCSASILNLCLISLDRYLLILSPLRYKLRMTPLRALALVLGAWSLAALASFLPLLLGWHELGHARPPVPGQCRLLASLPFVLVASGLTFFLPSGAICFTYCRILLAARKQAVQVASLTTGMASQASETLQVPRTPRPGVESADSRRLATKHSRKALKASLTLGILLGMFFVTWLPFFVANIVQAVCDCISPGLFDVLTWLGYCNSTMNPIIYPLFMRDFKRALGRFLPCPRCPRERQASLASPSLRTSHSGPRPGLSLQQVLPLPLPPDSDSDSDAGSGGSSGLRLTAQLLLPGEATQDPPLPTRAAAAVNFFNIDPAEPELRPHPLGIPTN
Protocol: 5-HT6 Receport Binding Assay
Growth of Cells and Membrane Preparation
Hela cells containing the cloned human 5-HT6 receptor were acquired from Dr. David R. Sibley's laboratory in National Institute of Health (see Sibley, D. R., J. Neurochemistry, 66, 47-56, 1996). Cells were grown in high glucose Dulbecco's modified Eagle's medium, supplemented with L-glutamine, 0.5% sodium pyruvate, 0.3% penicillin-streptomycin, 0.025% G-418 and 5% Gibco fetal bovine serum and then were harvested, when confluent, in cold phosphate buffered saline.
Harvested intact cells were washed once in cold phosphate-buffered saline. The cells were pelleted and resuspended in 100 ml of cold 50 mM Tris, 5 mM EDTA and 5 mM EGTA, pH 7.4. Homogenization was with a Vir Tishear generator, 4 cycles for 30 seconds each at setting 50. The homogenized cells were centrifuged at […] for 10 minutes and the supernatant was removed. The pellet was resuspended in 100 ml of the above buffer and rehomogenized for 2 cycles. The rehomogenized cells were then centrifuged at […] for 10 minutes and the supernatant was removed. The combined supernatant (200 ml) was centrifuged at 23,000 RPM (80,000×g) for 1 hour in a Beckman Rotor (42.1 Ti). The membrane pellet was resupended in 50-8-ml of assay buffer containing HEPES 20 mM, MgCl2 10 mM, NaCl 150 mM, EDTA 1 mM, pH 7.4 and stored frozen in aliqouts at −70° C.
5-HT6 Receptor Binding Assay
The radioligand binding assay used [^3H]-lysergic acid diethylamide (LSD). The assay was carried out in Wallac 96-well sample plates by the addition of 11 μl of the test sample at the appropriate dilution (the assay employed 11 serial concentrations of samples run in duplicate), 11 μl of radioligand, and 178 μl of a washed mixture of WGA-coated SPA beads and membranes in binding buffer. The plates were shaken for about 5 minutes and then incubated at room temperature for 1 hour. The plates were then loaded into counting cassettes and counted in a Wallac MicroBeta Trilux scintillation counter.
Binding Constant (Ki) Determination
Eleven serial dilutions of test compounds were distributed to assay plates using the PE/Cetus Pro/Pette pipetter. These dilutions were, followed by radioligand and the bead-membrane mixture prepared as described above. The specifically bound cpm obtained were fit to a one-site binding model using GraphPad Prism ver. 2.0. Estimated IC50 values were converted to Ki values using the Cheng-Prusoff equation (Cheng, Y. C. et al., Biochem. Pharmacol., 22, 3099-108, 1973).

CCN(CC)CCOc1cccc2c1c1cccc3c1n2C(c1ccccc1)CO3 (centres unmarked) (as salt: maleic acid salt) [Example 3, N,N-Diethyl-2-[(1-phenyl-1,2-dihydro[1,4]oxazino[2,3,4-jk]carbazol-7-yl)oxy]-1-ethanamine]
melting point: 105 to 107 °C

NCCOc1cccc2c1c1cccc3c1n2[C@@H](c1ccccc1)CO3 [Example 1, (S)-(+)-[(1-Phenyl-1,2-dihydro[1,4]oxazino[2,3,4-jk]carbazol-7-yl)oxy]ethanamine]
Ki [1]: 76 nM

CS(=O)(=O)O.NCCOc1cccc2c1c1cccc3c1n2[C@H](c1ccccc1)CO3 [Example 2, (R)-(−)-[(1-Phenyl-1,2-dihydro[1,4]oxazino[2,3,4-jk]carbazol-7-yl)oxy]ethanamine]
melting point: 236 °C

CCN(CC)CCOc1cccc2c1c1cccc3c1n2C(c1ccccc1)CO3 (centres unmarked) [Example 3, N,N-Diethyl-2-[(1-phenyl-1,2-dihydro[1,4]oxazino[2,3,4-jk]carbazol-7-yl)oxy]-1-ethanamine]
Ki [1]: 7.6 nM

NCCOc1cccc2c1c1cccc3c1n2C(c1ccccc1)CO3 (centres unmarked) [Example 4, [(1-Phenyl-1,2-dihydro[1,4]oxazino[2,3,4-jk]carbazol-7-yl)oxy]ethanamine]
Ki [1]: 1.7 nM

CCNCCOc1cccc2c1c1cccc3c1n2C(c1ccccc1)CO3.O=C(O)/C=C\C(=O)O (centres unmarked) [Example 6, N-Ethyl-2-[(1-phenyl-1,2-dihydro[1,4]oxazino[2,3,4-jk]carbazol-7-yl)oxy]-1-ethanamine]
Ki [1]: 2.7 nM | melting point: 105 °C

O=CNCCOc1cccc2c1c1cccc3c1n2C(c1ccccc1)CO3 (centres unmarked) [Example 7, 2-[(1-Phenyl-1,2-dihydro[1,4]oxazino[2,3,4-jk]carbazol-7-yl)oxy]ethylformamide]
Ki [1]: 39 nM

CNCCOc1cccc2c1c1cccc3c1n2C(c1ccccc1)CO3 (centres unmarked) [Example 8, N-Methyl-2-[(1-phenyl-1,2-dihydro[1,4]oxazino[2,3,4-jk]carbazol-7-yl)oxy]-1-ethanamine]
Ki [1]: 2 nM

NCCOc1c(Cl)ccc2c1c1cccc3c1n2C(c1ccccc1)CO3 (centres unmarked) [Example 9, 2-[(8-Chloro-1-phenyl-1,2-dihydro[1,4]oxazino[2,3,4-jk]carbazol-7-yl)oxy]-1-ethanamine]
Ki [1]: 5.8 nM

CCNCCOc1cccc2c1c1cc(C)cc3c1n2C(c1ccccc1)CO3 (centres unmarked) [Example 11, N-Ethyl-2-[(5-methyl-1-phenyl-1,2-dihydro[1,4]oxazino[2,3,4-jk]carbazol-7-yl)oxy]-1-ethanamine]
Ki [1]: 5.3 nM

CC(C)(C)OC(=O)N1CCN(CCOc2cccc3c2c2cccc4c2n3C(c2ccccc2)CO4)CC1 (centres unmarked) [Example 12, tert-Butyl 4-{2-[(1-phenyl-1,2-dihydro[1,4]oxazino[2,3,4-jk]carbazol-7-yl)oxy]ethyl}-1-piperazinecarboxylate]
Ki [1]: 35 nM | melting point: 72 °C

c1ccc(C2COc3cccc4c5c(OCCN6CCNCC6)cccc5n2c34)cc1 (centres unmarked) [Example 13, 1-Phenyl-1,2-dihydro[1,4]oxazino[2,3,4-jk]carbazol-7-yl 2-(1-piperazinyl)ethyl Ether]
Ki [1]: 57 nM | melting point: 72 °C

CN1CCN(CCOc2cccc3c2c2cccc4c2n3C(c2ccccc2)CO4)CC1 (centres unmarked) [Example 14, 2-(4-Methyl-1-piperazinyl)ethyl 1-phenyl-1,2-ihydro[1,4]oxazino [2,3,4-jk]carbazol-7-yl Ether]
Ki [1]: 6.9 nM | melting point: 57 °C

c1ccc(C2COc3cccc4c5c(OCCN6CCOCC6)cccc5n2c34)cc1 (centres unmarked) [Example 15, 2-(4-Morpholinyl)ethyl 1-phenyl-1,2-dihydro[1,4]oxazino[2,3,4-jk]carbazol-7-yl Ether]
Ki [1]: 97 nM

c1ccc(C2COc3cccc4c5c(OCCN6CCCCC6)cccc5n2c34)cc1 (centres unmarked) [Example 16, 1-Phenyl-1,2-dihydro[1,4]oxazino[2,3,4-jk]carbazol-7-yl 2-(1-piperidinyl)ethyl Ether]
Ki [1]: 5 nM

OCCNCCOc1cccc2c1c1cccc3c1n2C(c1ccccc1)CO3 (centres unmarked) [Example 17, 2-({2-[(1-Phenyl-1,2-dihydro[1,4]oxazino[2,3,4-jk]carbazol-7-yl)oxy]ethyl}amino)-1-ethanol]
Ki [1]: 1.1 nM

CN(C)CCOc1cccc2c1c1cccc3c1n2C(c1ccccc1)CO3 (centres unmarked) [Example 18, N,N-dimethyl-2-[(1-phenyl-1,2-dihydro[1,4]oxazino[2,3,4-jk]carbazol-7-yl)oxy]-1-ethanamine]
Ki [1]: 3.3 nM | melting point: 117 to 118 °C

Cc1cc2c3c(c1)c1c(OCCN)cccc1n3C(c1ccccc1)CO2 (centres unmarked) [Example 19, 2-[(5-Methyl-1-phenyl-1,2-dihydro[1,4]oxazino[2,3,4-jk]carbazol-7-yl)oxy]-1-ethanamine]
Ki [1]: 8 nM

CCN(CC)CCCCOc1cccc2c1c1cccc3c1n2C(c1ccccc1)CO3 (centres unmarked) [Example 20, N,N-Diethyl-N-{4-[(1-phenyl-1,2-dihydro[1,4]oxazino[2,3,4-jk]carbazol-7-yl)oxy]butyl}amine]
Ki [1]: 28 nM

CCN(CC)CCCOc1cccc2c1c1cccc3c1n2C(c1ccccc1)CO3 (centres unmarked) [Example 21, N,N-Diethyl-N-{3-[(1-phenyl-1,2-dihydro[1,4]oxazino[2,3,4-jk]carbazol-7-yl)oxy]propyl}amine]
Ki [1]: 19 nM

OCCNCCOc1cccc2c1c1cccc3c1n2[C@H](c1ccccc1)CO3 [Example 22, [(2-{[(1R)-1-Phenyl-1,2-dihydro[1,4]oxazino[2,3,4-jk]carbazol-7-yl]oxy}ethyl)amino]ethanol]
Ki [1]: 3 nM
